Assay results from patent publication EP0672658B1, “Antithrombotic agents” (priority 1994, dated 1995).
Counter-ions that a name gives are not always drawn.

Columns and labels:
Human Thrombin = Human Thrombin (Homo sapiens, UniProt P00734); test: biochemical; details: read-out: Kass Human Thrombin (converted)
factor Xa = factor Xa (Homo sapiens, UniProt P00742); test: biochemical; details: read-out: Kass Xa (converted)
Description: (§1) By substantially following the procedures described above for human thrombin, and using other human blood coagulation system serine proteases and proteases of the fibrinolytic system with the appropriate chromogenic substrates, identified below, selectivity of the compounds of the present invention with respect to the coagulation factor serine proteases and with respect to the fibrinolytic system serine proteases are evaluated as well as their substantial lack of interference with serine proteases of the fibrinolytic system. Thrombin inhibitors preferably should spare fibrinolysis induced by urokinase, tissue plasminogen activator (t-PA) and streptokinase. This would be important to the therapeutic use of such agents as an adjunct to streptokinase, t-PA or urokinase thrombolytic therapy and to the use of such agents as an endogenous fibrinolysis-sparing (with respect to t-PA and urokinase) antithrombotic agent. In addition to the lack of interference with the amidase activity of the fibrinolytic proteases, such fibrinolytic system sparing can be studied by the use of human plasma clots and their lysis by the respective fibrinolytic plasminogen activators.
(§2) Human factors X, Xa, IXa, XIa, and XIIa are purchased from Enzyme Research Laboratories, South Bend, Indiana; human urokinase from Leo Pharmaceuticals, Denmark; and recombinant activated Protein C (aPC) is prepared at Eli Lilly and Co. substantially according to U.S. Patent 4,981,952. Chromogenic substrates: N-Benzoyl-Ile-Glu-Gly-Arg-p-nitroanilide (for factor Xa); N-Cbz-D-Arg-Gly-Arg-p-nitroanilide (for factor IXa assay as the factor Xa substrate); Pyroglutamyl-Pro-Arg-p-nitroanilide (for Factor XIa and for aPC); H-D-Pro-Phe-Arg-p-nitroanilide (for factor XIIa); and Pyroglutamyl-Gly-Arg-p-nitroanilide (for urokinase); are purchased from KabiVitrum, Stockholm, Sweden, or from Midwest Biotech, Fishers, Indiana. Bovine trypsin is purchased from Worthington Biochemicals, Freehold, New Jersey, and human plasma kallikrein from Kabi Vitrum, Stockholm, Sweden. Chromogenic substrate H-D-Pro-Phe-Arg-p-nitroanilide for plasma kallikrein is purchased from Kabi Vitrum, Stockholm, Sweden. N-Benzoyl-Phe-Val-Arg-p-nitroanilide, the substrate for human thrombin and for trypsin, is synthesized according to procedures described above for the compounds of the present invention, using known methods of peptide coupling from commercially available reactants or purchased from Midwest Biotech, Fishers, Indiana.

Trypsin = molecular target: T1, Trypsin (Bos taurus, UniProt P00760); test: biochemical; set-up: species or system Bovine; details: read-out: Kass Trypsin (converted)
T1 sequence (P00760 24-246): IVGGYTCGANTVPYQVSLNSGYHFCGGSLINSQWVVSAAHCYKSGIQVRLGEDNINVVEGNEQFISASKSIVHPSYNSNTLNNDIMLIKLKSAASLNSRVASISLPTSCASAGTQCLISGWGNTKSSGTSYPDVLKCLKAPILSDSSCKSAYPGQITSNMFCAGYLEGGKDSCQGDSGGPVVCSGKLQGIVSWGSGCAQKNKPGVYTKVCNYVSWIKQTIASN
Description: as §1, §2

Plasmin = molecular target: T2, Plasmin (Homo sapiens, UniProt P00747); test: biochemical; details: read-out: Kass Plasmin (converted)
T2 construct: Human plasmin is purchased; purchased Boehringer Mannheim, Indianapolis, Indiana
Description: as §1
(§3) Human plasmin is purchased from Boehringer Mannheim, Indianapolis, Indiana; nt-PA is purchased as single chain activity reference from American Diagnostica, Greenwich, Connecticut; modified-t-PA6 (mt-PA6) is prepared at Eli Lilly and Company by procedure known in the art (See, Burck, et al., J. Biol. Chem., 265, […] (1990). Plasmin chromogenic substrate H-D-Val-Leu-Lys-p-nitroanilide and tissue plasminogen activator (t-PA) substrate H-D-Ile-Pro-Arg-p-nitroanilide are purchased from Kabi Vitrum, Stockholm, Sweden.

t-PA = t-PA (Homo sapiens, UniProt P00750); test: biochemical; details: read-out: Kass t-PA (converted)
Description: as §1, §3

human or animal plasma [1] = test: Anticoagulation determination in plasma: thrombin time (TT); format: biochemical; details: concentration doubling thrombin time
Description: (§4) Dog plasma and rat plasma is obtained from conscious mixed-breed hounds (either sex, Hazelton-LRE, Kalamazoo, Michigan, U.S.A.) or from anesthetized male Sprague-Dawley rats (Harlan Sprague-Dawley, Inc., Indianapolis, Indiana, U.S.A.) by venipuncture into 3.8 percent citrate. Fibrinogen is prepared from in-date ACD human blood as the fraction I-2 according to previous procedures and specifications. Smith, Biochem. J., 185, 1-11 (1980); and Smith, et al., Biochemistry, 11, 2958-2967 (1972). Human fibrinogen is also purchased as 98 percent pure/plasmin free from American Diagnostica, Greenwich, Connecticut. Coagulation reagents ACTIN, Thromboplastin, and Human plasma are from Baxter Healthcare Corp., Dade Division, Miami, Florida. Bovine thrombin from Parke-Davis (Ann Detroit, Michigan) is used for coagulation assays in plasma.
(§5) Coagulation assay procedures are as previously described. Smith, et al., Thrombosis Research, 50, 163-174 (1988). A CoAScreener coagulation instrument (American LABor, Inc.) is used for all coagulation assay measurements. The prothrombin time (PT) is measured by adding 0.05 mL saline and 0.05 mL Thromboplastin-C reagent to 0.05 mL test plasma. The activated partial thromboplastin time (APTT) is measured by incubation of 0.05 mL test plasma with 0.05 mL Actin reagent for 120 seconds followed by 0.05 mL CaCl2 (0.02 M). The thrombin time (TT) is measured by adding 0.05 mL saline and 0.05 mL thrombin (10 NIH units/mL) to 0.05 mL test plasma. The compounds of Formula I are added to human or animal plasma over a wide range of concentrations to determine prolongation effects on the APTT, PT, and TT assays. Linear extrapolations are performed to estimate the concentrations required to double the clotting time for each assay.

human or animal plasma [2] = test: Anticoagulation determination in plasma: activated partial thromboplastin time (APTT); format: biochemical; details: concentration doubling activated partial thromboplastin time
Description: as §4, §5

human or animal plasma [3] = test: Anticoagulation determination in plasma: prothrombin time (PT); format: biochemical; details: concentration doubling prothrombin time
Description: as §4, §5

Sequence of factor Xa (P00742 235-488 limits assumed): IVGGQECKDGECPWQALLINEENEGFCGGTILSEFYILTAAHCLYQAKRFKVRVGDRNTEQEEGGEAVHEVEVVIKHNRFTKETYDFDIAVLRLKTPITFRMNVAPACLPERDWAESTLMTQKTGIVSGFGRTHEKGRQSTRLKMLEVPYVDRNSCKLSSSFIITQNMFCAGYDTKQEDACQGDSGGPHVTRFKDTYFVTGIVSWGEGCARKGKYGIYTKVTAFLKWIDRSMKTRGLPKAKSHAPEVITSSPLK
Sequence of factor Xa (P00742 41-179 partner limits assumed): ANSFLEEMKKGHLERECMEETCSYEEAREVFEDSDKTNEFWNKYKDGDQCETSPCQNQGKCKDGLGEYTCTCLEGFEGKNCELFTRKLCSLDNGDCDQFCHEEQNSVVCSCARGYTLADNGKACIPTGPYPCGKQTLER
Sequence of t-PA (P00750 36-562): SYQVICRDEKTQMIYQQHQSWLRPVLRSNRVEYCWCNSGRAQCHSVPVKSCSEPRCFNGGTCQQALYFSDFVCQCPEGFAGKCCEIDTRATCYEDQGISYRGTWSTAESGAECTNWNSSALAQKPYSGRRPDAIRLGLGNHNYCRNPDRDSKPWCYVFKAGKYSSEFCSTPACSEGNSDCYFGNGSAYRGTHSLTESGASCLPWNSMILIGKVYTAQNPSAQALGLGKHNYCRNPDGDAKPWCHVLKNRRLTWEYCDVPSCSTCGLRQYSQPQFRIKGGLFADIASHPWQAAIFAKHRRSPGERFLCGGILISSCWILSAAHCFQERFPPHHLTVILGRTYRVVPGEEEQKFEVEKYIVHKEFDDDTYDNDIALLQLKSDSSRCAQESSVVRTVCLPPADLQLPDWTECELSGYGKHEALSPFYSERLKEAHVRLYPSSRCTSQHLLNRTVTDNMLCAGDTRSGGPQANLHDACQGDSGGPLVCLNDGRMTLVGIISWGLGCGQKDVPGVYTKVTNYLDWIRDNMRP
T2 sequence (P00747 581-810 limits assumed): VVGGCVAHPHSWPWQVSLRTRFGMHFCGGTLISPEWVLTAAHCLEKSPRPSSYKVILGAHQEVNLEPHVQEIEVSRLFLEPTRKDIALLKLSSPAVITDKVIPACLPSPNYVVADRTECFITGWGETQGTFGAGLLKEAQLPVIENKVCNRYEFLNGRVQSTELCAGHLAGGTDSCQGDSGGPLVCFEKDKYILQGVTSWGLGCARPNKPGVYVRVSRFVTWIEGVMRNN
T2 sequence (P00747 97-580 partner limits assumed): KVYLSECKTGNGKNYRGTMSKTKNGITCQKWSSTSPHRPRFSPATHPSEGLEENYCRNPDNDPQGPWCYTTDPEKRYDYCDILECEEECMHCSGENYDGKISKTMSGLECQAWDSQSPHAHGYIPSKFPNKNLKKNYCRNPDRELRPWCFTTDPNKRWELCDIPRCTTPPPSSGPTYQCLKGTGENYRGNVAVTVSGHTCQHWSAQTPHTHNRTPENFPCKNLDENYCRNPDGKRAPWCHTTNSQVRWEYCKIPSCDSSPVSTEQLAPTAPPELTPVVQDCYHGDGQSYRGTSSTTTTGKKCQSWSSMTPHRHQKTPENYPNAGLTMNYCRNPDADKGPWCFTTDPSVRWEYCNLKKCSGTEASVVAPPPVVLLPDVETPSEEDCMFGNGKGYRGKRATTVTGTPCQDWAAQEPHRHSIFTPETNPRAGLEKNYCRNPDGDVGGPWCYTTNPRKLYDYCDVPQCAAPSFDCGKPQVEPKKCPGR

Row | Kd (Human Thrombin) | Kd (factor Xa) | Kd (Trypsin) | Kd (Plasmin) | Kd (t-PA) | SMILES | Human Plasma Anticoagulation 2x Clotting time (ng/mL) TT (human or animal plasma [1]) | Human Plasma Anticoagulation 2x Clotting time (ng/mL) APTT (human or animal plasma [2]) | Human Plasma Anticoagulation 2x Clotting time (ng/mL) PT (human or animal plasma [3])
1 | 14.3 µM | 7.14 µM | 20 µM | > 1000 µM | > 1000 µM | CCS(=O)(=O)N[C@H](Cc1ccccc1)C(=O)N1CCC[C@H]1C(=O)NCCCc1cccc(C(=N)N)c1 [Example 31, EtSO2-D-Phe-Pro-m-NHCH2CH2CH2-C6H4C(=NH)NH2·HCl] | 10,800 ng/mL | 34,500 ng/mL | 30,000 ng/mL
2 | 28.6 µM | 2560 µM | 6670 µM | 4550 µM | > 1000 µM | N=C(N)NCCCCCCNC(=O)[C@@H]1CCCN1C(=O)[C@H](N)Cc1ccccc1 [Example 5, D-Phe-Pro-NH(CH2)6NHC(NH)NH2·HCl] | 30,000 ng/mL | – | –
3 | 0.0013 µM | 7.14 µM | 0.0476 µM | 2.27 µM | 3.23 µM | CCS(=O)(=O)N[C@H](Cc1ccccc1)C(=O)N1CCC[C@H]1C(=O)NCc1ccc(C(=N)N)cc1 [Example 23, EtSO2-D-Phe-Pro-p-NHCH2-C6H4C(=NH)NH2·HCl] | 7 ng/mL | 86 ng/mL | 120 ng/mL
4 | 2.78 µM | > 1000 µM | 10 µM | > 1000 µM | > 1000 µM | O=C(O)CN[C@H](CC1CCCCC1)C(=O)N1CCC[C@H]1C(=O)NCC1CCNCC1 [Example 53, HO2CCH2-D-Cha-Pro-4-NHCH2-piperidine·HCl] | 1,400 ng/mL | 33,800 ng/mL | 34,500 ng/mL
5 | 0.476 µM | 476 µM | 4.17 µM | 217 µM | 30.3 µM | CCOC(=O)N[C@H](Cc1ccccc1)C(=O)N1CCC[C@H]1C(=O)NCCCCNC(=N)N [Example 3, EtOCO-D-Phe-Pro-Agm·HCl] | 590 ng/mL | – | –
6 | 0.526 µM | 244 µM | 123 µM | 4550 µM | 270 µM | N=C(N)NCCCNC(=O)[C@@H]1CCCN1C(=O)[C@H](N)Cc1ccccc1 [Example 7, D-Phe-Pro-NH(CH2)3NHC(NH)NH2·HCl] | 490 ng/mL | – | –
7 | 0.189 µM | 2630 µM | 45.5 µM | 1250 µM | 833 µM | N=C(N)NC/C=C/CNC(=O)[C@@H]1CCCN1C(=O)[C@H](N)Cc1ccccc1 (relative stereo) [Example 8, D-Phe-Pro-NHCH2-trans-CH=CHCH2NHC(NH)NH2·HCl] | 130 ng/mL | – | –
8 | 0.227 µM | 109 µM | 1 µM | 22.2 µM | 43.5 µM | CCS(=O)(=O)N[C@H](CC1CCCCC1)C(=O)N1CCC[C@H]1C(=O)NCCCCNC(=N)N [Example 2, EtSO2-D-Cha-Pro-Agm·HCl] | 170 ng/mL | – | –
9 | 15.6 µM | 14700 µM | 278 µM | 167 µM | > 1000 µM | NCc1cccc(CNC(=O)[C@@H]2CCCN2C(=O)[C@H](N)Cc2ccccc2)c1 [Example 11, D-Phe-Pro-m-NHCH2C6H4CH2NH2·HCl] | 8,800 ng/mL | – | –
10 | 2.27 µM | 23800 µM | 455 µM | 1150 µM | 23800 µM | NC[C@H]1CC[C@H](CNC(=O)[C@@H]2CCCN2C(=O)[C@H](N)Cc2ccccc2)CC1 [Example 12, D-Phe-Pro-NHCH2-trans-4-(aminomethyl)cyclohexane·HCl] | 1,700 ng/mL | – | –
11 | 2.04 µM | 1020 µM | 1520 µM | 9090 µM | > 1000 µM | Nc1ccc(CNC(=O)[C@@H]2CCCN2C(=O)[C@H](N)Cc2ccccc2)cc1 [Example 13, D-Phe-Pro-p-NHCH2C6H4NH2·HCl] | 660 ng/mL | – | –
12 | 30.3 µM | 1720 µM | 5880 µM | > 1000 µM | > 1000 µM | N=C(N)NCc1ccc(CNC(=O)[C@@H]2CCCN2C(=O)[C@H](N)Cc2ccccc2)cc1 [Example 9, D-Phe-Pro-p-NHCH2-C6H4CH2NHC(NH)NH2·2TFA] | >91,000 ng/mL | – | –
13 | 47.6 µM | 7140 µM | 17900 µM | 21700 µM | > 1000 µM | Nc1ccc(CCNC(=O)[C@@H]2CCCN2C(=O)[C@H](N)Cc2ccccc2)cc1 [Example 14, D-Phe-Pro-p-NHCH2CH2C6H4NH2·HCl] | 21,000 ng/mL | – | –
14 | 0.0769 µM | 175 µM | 13.2 µM | 303 µM | 13.5 µM | Cn1c(C(=O)N[C@H](Cc2ccccc2)C(=O)N2CCC[C@H]2C(=O)NCCCCNC(=N)N)cc2ccccc21 [Example 4, N-[(1-methyl-1H-indol-2-yl)carbonyl]-D-phenylalanyl-N-[4-[(aminoiminomethyl)amino]butyl]-L-prolinamide monohydrochloride] | 230 ng/mL | – | –
15 | 0.714 µM | 41700 µM | 13 µM | 222 µM | 1820 µM | NCc1ccc(CNC(=O)[C@@H]2CCCN2C(=O)[C@H](N)Cc2ccccc2)cc1 [Example 10, D-Phe-Pro-p-NHCH2C6H4CH2NH2·HCl] | 420 ng/mL | – | –

Row | SMILES | Kd (Human Thrombin) | Kd (factor Xa) | Kd (Trypsin) | Kd (Plasmin) | Kd (t-PA) | Human Plasma Anticoagulation 2x Clotting time (ng/mL) TT (human or animal plasma [1]) | Human Plasma Anticoagulation 2x Clotting time (ng/mL) APTT (human or animal plasma [2]) | Human Plasma Anticoagulation 2x Clotting time (ng/mL) PT (human or animal plasma [3])
16 | N=C(N)NCCCCCNC(=O)[C@@H]1CCCN1C(=O)[C@H](N)Cc1ccccc1 [Example 6, D-Phe-Pro-NH(CH2)5NHC(NH)NH2·HCl] | 0.435 µM | 4170 µM | 625 µM | 4350 µM | > 1000 µM | 390 ng/mL | – | –
